Results as given in patent US10744117B2, “PPARG modulators for the treatment of osteoporosis” (The Scripps Research Institute, priority 2014, dated 2020).
Entries after “also recorded” stand apart in the source; their conditions may differ.

Legend:
lean C57BL/6 mice = test: Bone study in lean C57BL/6 mice on regular diet, 8 weeks; assay type: in vivo, mouse; details: supplemented RD
Procedure: In parallel, a group of sex- and age-matched control (n=5) was fed regular diet (RD) providing 12 kcal % from fat (2016 Teklad Global, Harlan Laboratories, Indianapolis, Ind.). […] The animal treatment and care protocols conformed to the NIH Guidelines and were performed under the University of Toledo Health Science Campus Institutional Animal Care and Utilization Committee protocol.
(§1) Fat and lean mass were evaluated at the beginning and at the end of experiment using a Minispec mq10 NMR analyzer (Bruker, Billerica, Mass.). Glucose disposal (glucose tolerance test, GTT) was measured after ip injection of 2 g/kg glucose to animals fasted for 4 hrs. Blood glucose was measured using the AlphaTRAK system appropriate for mice (Abbott Laboratories, North Chicago, Ill.). For indirect calorimetry, mice were evaluated in metabolic cages (CLAMS; Columbus Instruments, Columbus, Ohio) for 4 days with a free access to food and water. Mice were housed individually at room temperature (22C) under an alternating 12-h light/dark cycle. After one day adaptation, oxygen (VO2) consumption, carbon dioxide (VCO2) production, physical activity, and heat production were measured to determine energy expenditure. Respiratory exchange ratio was calculated as a ratio of the O2 consumption and the CO2 production. […]

[1] = test system: obese mice fed a high fat diet; test: Glucose tolerance test in mice on RD or HFD (FIG. 7); assay type: in vivo, mouse; details: mice fasted, bolus of glucose, plasma glucose over time
DIO C57BL/6 mice = test: Bone and marrow fat study in diet induced obesity (DIO) C57BL/6 mice on HFD, 4 wks; assay type: in vivo, mouse; details: 25 mg/kg/d
Procedure: The compound IA-48 (SR10171) acts as an antagonist to PPARy pro-adipocytic activity, and it has been further tested in vivo for its effect on bone. SR10171 was administered to hyperglycemic C57BL/6 mice, 12 wks old males, that were purchased from the Jackson Laboratories (Bar Harbor, Me.). DIO mice: Animals were fed ad libitum for 11 wks high fat diet (HFD) providing 45 kcal % from fat (D12451; Research Diets, New Brunswick, N.J.) to develop diet induced obesity (DIO).
In parallel, a group of sex- and age-matched control (n=5) was fed regular diet (RD) providing 12 kcal % from fat (2016 Teklad Global, Harlan Laboratories, Indianapolis, Ind.). […]
as §1, with “Mice were housed individually at room temperature (22C) under an alternating 12-h light/dark cycle.” left out, “expenditure.” for “expenditure. Respiratory exchange ratio was calculated as a ratio of the O2 consumption and the CO2 production.”

PPARG = test: Cell-based transactivation assay, 3xPPRE-luciferase reporter co-transfected with PPARG in COS-1 cells; details: PPRE-luciferase

CN(CCOc1ccc(CC2SC(=O)NC2=O)cc1)c1ccccn1 (centres unmarked) [Rosiglitazone, rosiglitazone]
loss of trabecular bone mass (lean C57BL/6 mice): 30%
glucose tolerance / glucose disposal [1]: insulin sensitization effects and improved glucose disposal
decrease of trabecular bone mass (DIO C57BL/6 mice): 70%
bone marrow fat content (osmium staining) (DIO C57BL/6 mice; trabecular region of tibia): significant fat accumulation in the bone marrow; also recorded: significantly increased fat content in the bone marrow
activation of the reporter (PPARG): about 5 fold
